# Measured values: US12351602B2, “Methods of inactivating viral contaminants” (Ichnos Sciences SA, priority 2017, dated 2025)
# System: MLV
# Assay: VRV study, Arginine treatment of PA eluate
# Procedure: Based on the stability and activity studies reported in Example 1, the most promising viral inactivation methods were further tested for their ability to inactivate viruses. The effectiveness of the viral inactivation was evaluated by doing a spiking study at Bioreliance. Test samples were taken before and after each treatment and analyzed for viral titre. First, VRV study on Arginine treatment was carried out.
# Only one virus, MLV, which is a typical model virus used for biological products derived from CHO cell lines such as monoclonal antibody, was used for this study. A total of 7 runs were performed. PA eluate from development runs was used as starting material. Different stock buffers of Arginine at the different pH (pH 4.0, pH 4.75, pH 4.79 and pH 5.5) were used to reach the target pH and concentration. The samples were neutralized using 250 mM Histidine pH 12.0 buffer around pH 6.0 to stop the reaction.
# Log reduction values was calculated with respect to the neutralized load sample, a 5 plate large volume plating as well as a standard titration was performed on the t=60 min sample. The neutralized load hold sample was held at 16.0° C. to 20.0° C. for 60 minutes (runs 2, 4 and 6) or 120 minutes (runs 1, 3, 5 and 7).
compound,measurement,setting,value
N=C(N)NCCC[C@H](N)C(=O)O [Arginine],virus clearance,Arginine treatment at pH 4.0,"effective (“effective”, when RF is greater than 4 log10)"
same,log10 reduction factor,"Run 5, Arginine concentration 0.38, pH 4.79, 120 min",no reduction
same,log10 reduction factor,"Run 7, Arginine concentration 0.8, pH 5.5, 120 min",no reduction
